Measured values from US20040126755A1, “Gene expression based method for distinguishing metastatic from non-metastatic forms of a tumor, and use in designing therapeutic drugs” (priority 2001, published 2004).

Columns and labels:
Type in all cases: cell-based, human
MAPK1/3 = experiment: Western blot, phospho-MAPK1/3 to total ratio in Daoy cell lysates
Method: (§1) Daoy cells were treated in a manner identical to that described above for migration. After described incubation with PDGFA, PDGFRA antibody, or MAP2K1/MAP2K2 inhibitor U0126, we prepared cell lysates by adding 500 ul lysis buffer (Cell Signaling Technology) to cell pellets on ice for 20 min, sonicating, and centrifuging at 10,000 RPM for 10 min. We collected the supernatants and mixed equal amounts of lysate protein (5.2 ug) in a 1:1 mixture with Tris-Glycine SDS sample buffer Covex). Samples were run on a 12% SDS-PAGE gel (BioRad) along with broad range protein markers (BioRad) at 125 V for 1 h. We transferred proteins to PVDF membrane (NEN Life Sciences) using a semi-dry transfer cell (BioRad). We first soaked the membrane in anhydrous methanol for 2 min, deionized water for 5 min, and transfer buffer (25 mM Tris, 0.2 M glycine, 20% methanol, pH 8.5) for 10 min. The gels were pre-soaked in transfer buffer for 15 min and subsequently electro-blotted to the membrane between filter paper soaked in transfer buffer for 45 min at a current equivalent to 2.5 × total gel area (cm^2). Following blotting, we incubated the membrane in blocking buffer (3% BSA in TBS-T) for 1 h at room temperature with gentle agitation. We subsequently incubated the membrane with primary antibody (MAP2K1/2 antibody, phospho-MAP2K1/2 (Ser217/221) antibody, MAPK1/3 (p42/p44 MAPK) antibody, or phospho-MAPK1/3 (Thr202/Tyr204) antibody; Cell Signaling Technology) diluted 1:1000 in blocking buffer overnight at 4° C. We washed the membranes in wash buffer (1% BSA in TBS-T) 3 times (1× for 10 min and 2× for 5 min) and incubated them with anti-rabbit HRP-conjugated secondary antibody (Cell Signaling Technology) diluted 1:2000 in blocking buffer for 1 h with gentle agitation at room temperature. We subsequently washed membranes with gentle agitation 5 times with 1%BSA in TBS-T (1× for 10 min in, 4× for 5 min) and once in TBS-T for 5 min. […] We scanned the developed films, and determined the optical density of each lane using NIH Image (available at http://rsb.info.nih.gov/nih-image/Default.html). […]

Daoy cells [1] = experiment: Fibronectin-mediated cell migration assay (Boyden chamber, Chemicon QCM-FN)
Method: Fibronectin-mediated cell adhesion and migration were assessedusing the Chemicon QCM-FN Quantitative Cell Migration Assay (Chemicon International). Briefly, Daoy cells were grown in EMEM withh 10% FBS to 80% confluency and starved in serum-free EMEM for 24 h. Cells were washed twice with PBS, harvested them with trypsin/EDTA, and resuspended them in serum-free EMEM (1×10^6 cells/ml) with 5% BSA for 1 h. We subsequently incubated cells at 37 ° C. for 30 min with either no antibody, 0.6 ug/ml of neutralizing monoclonal anti-human PDGFRA antibody (R&D Systems), 0.6 ug/mi isotype-matched control antibody (R&D Systems), and or first pretreated them with 10 μM of MAP2K1/MAP2K2 inhibitor U0126 (Cell Signaling Technology) for 1 h. We based the concentration of antibody used on the ND50 for this lot of antibody for blocking 10 ng/ml of PDGFRA biologic activity on human WS1 cells (per R&D Systems product insert). We based the concentration of MAP2K1/MAP2K2 inhibitor U0126 used on the manufacturer?s recommendation. Following incubations, we resuspended the cells, and placed aliquots of 2×10^5 cells in 200 ul of serum-free EMEM into the upper fibronectin-(FN-) coated or BSA-coated (control) Boyden chambers (migration assay), or FN-coated wells (adhesion assay). The lower well contained 0, 1, 2, 4, 6, 8, or 10 ng/ml PDGFA (Chemicon) in 300 ll serum-free EMEM. We incubated the cells for 3 h at 37° C., stained them with cell stain solution (Chemicon), and subsequently washed them. We removed the medium, as well as non-adherent or non-migrating cells, from the upper side of the Boyden chamber membranes. We first visualized the cells by microscopy, and then subsequently eluted migrating or adherent cells with extraction solution (Chemicon) according to the manufacturer? s instructions. We aliquoted eluant (50 μl)×2 for each test sample into microtiter plates, and read the optical density (OD540-570) on a ThermoMax microplate reader (Molecular Devices). Using standardized migration rates of 130 cells per mm^2 equivalent to an OD550 of 0.270 (per Chemicon product insert), we obtained the final cell counts by averaging the two OD measurements (540 nm and 570 nm) after subtraction of the BSA control measurements (background), and determined significance (P value) using a t-test.
We tested the significance of PDGFRA in the metastatic potential of Daoy cells by fibronectin-dependent adhesion and migration assays.
To further test whether medulloblastoma migration is directly linked in part to downstream MAP2K1, MAP2K2 and MAPK1/3 activation, Daoy migration was tested in an identical fashion to that described above, except that cells were pretreated with U0126, a highly specific chemical inhibitor of MAP2K1 and MAP2K2 (FIG. 5b).

MAP2K2 = experiment: Western blot, phospho-MAP2K2 to total ratio in Daoy cell lysates; settings: PDGFA 10 ng/ml
Method: as §1, with “agitation.” for “agitation. We subsequently incubated the membrane with primary antibody (MAP2K1/2 antibody, phospho-MAP2K1/2 (Ser217/221) antibody, MAPK1/3 (p42/p44 MAPK) antibody, or phospho-MAPK1/3 (Thr202/Tyr204) antibody; Cell Signaling Technology) diluted 1:1000 in blocking buffer overnight at 4° C. We washed the membranes in wash buffer (1% BSA in TBS-T) 3 times (1× for 10 min and 2× for 5 min) and incubated them with anti-rabbit HRP-conjugated secondary antibody (Cell Signaling Technology) diluted 1:2000 in blocking buffer for 1 h with gentle agitation at room temperature. We subsequently washed membranes with gentle agitation 5 times with 1%BSA in TBS-T (1× for 10 min in, 4× for 5 min) and once in TBS-T for 5 min.”

Daoy cells [2] = experiment: Fibronectin-mediated cell adhesion assay (Chemicon QCM-FN); settings: increasing concentrations of PDGFA, no antibody
Method: Fibronectin-mediated cell adhesion and migration were assessedusing the Chemicon QCM-FN Quantitative Cell Migration Assay (Chemicon International). Briefly, Daoy cells were grown in EMEM withh 10% FBS to 80% confluency and starved in serum-free EMEM for 24 h. Cells were washed twice with PBS, harvested them with trypsin/EDTA, and resuspended them in serum-free EMEM (1×10^6 cells/ml) with 5% BSA for 1 h. We subsequently incubated cells at 37 ° C. for 30 min with either no antibody, 0.6 ug/ml of neutralizing monoclonal anti-human PDGFRA antibody (R&D Systems), 0.6 ug/mi isotype-matched control antibody (R&D Systems), and or first pretreated them with 10 μM of MAP2K1/MAP2K2 inhibitor U0126 (Cell Signaling Technology) for 1 h. […] We aliquoted eluant (50 μl)×2 for each test sample into microtiter plates, and read the optical density (OD540-570) on a ThermoMax microplate reader (Molecular Devices). Using standardized migration rates of 130 cells per mm^2 equivalent to an OD550 of 0.270 (per Chemicon product insert), we obtained the final cell counts by averaging the two OD measurements (540 nm and 570 nm) after subtraction of the BSA control measurements (background), and determined significance (P value) using a t-test. […]

MAP2K1 = experiment: Western blot, phospho-MAP2K1 to total ratio in Daoy cell lysates; settings: PDGFA 10 ng/ml
Method: as §1, with “agitation.” for “agitation. We subsequently incubated the membrane with primary antibody (MAP2K1/2 antibody, phospho-MAP2K1/2 (Ser217/221) antibody, MAPK1/3 (p42/p44 MAPK) antibody, or phospho-MAPK1/3 (Thr202/Tyr204) antibody; Cell Signaling Technology) diluted 1:1000 in blocking buffer overnight at 4° C. We washed the membranes in wash buffer (1% BSA in TBS-T) 3 times (1× for 10 min and 2× for 5 min) and incubated them with anti-rabbit HRP-conjugated secondary antibody (Cell Signaling Technology) diluted 1:2000 in blocking buffer for 1 h with gentle agitation at room temperature. We subsequently washed membranes with gentle agitation 5 times with 1%BSA in TBS-T (1× for 10 min in, 4× for 5 min) and once in TBS-T for 5 min.”

Molecule | increase in MAPK1/3 phosphorylation, fold (MAPK1/3; PDGFA 10 ng/ml) [fold] | stimulation of Daoy migration across fibronectin-coated membranes, fold (Daoy cells [1]; 1 ng/ml PDGFA in lower well, vs no PDGFA) | Daoy cell migration (Daoy cells [1]; 1 ng/ml PDGFA in lower well, untreated 212) [cells/mm^2] | Daoy cell migration (Daoy cells [1]; 4 ng/ml PDGFA in lower well, untreated 212) [cells/mm^2] | increase in Daoy migration, fold (Daoy cells [1]; 10 ng/ml PDGFA in lower well, vs no PDGFA) [fold] | Daoy cell migration (Daoy cells [1]; 10 ng/ml PDGFA in lower well, untreated 212) [cells/mm^2] | increase in MAP2K2 phosphorylation, fold (MAP2K2) [fold] | effect on adhesion of Daoy cells to fibronectin (Daoy cells [2]) | increase in MAP2K1 phosphorylation, fold (MAP2K1) [fold] | decrease in baseline phosphorylation of MAPK1/3, fold (MAPK1/3; U0126 10 μM pretreatment 1 h, at start of migration assay) [fold] | effect on PDGFA-mediated MAPK1/3 phosphorylation (MAPK1/3; U0126 pre-treatment then PDGFA (FIG. 6b)) | decreased cell migration, % (Daoy cells [1]; U0126 10 μM pretreatment, no PDGFA) [%] | migration, % of normal baseline migration (Daoy cells [1]; U0126 treated cells, 1 ng/ml PDGFA) [%] | Daoy cell migration (Daoy cells [1]; U0126 treated cells, 1 ng/ml PDGFA, baseline 275, P<0.05) [cells/mm^2] | migration, % of normal baseline migration (Daoy cells [1]; U0126 treated cells, 10 ng/ml PDGFA) [%] | Daoy cell migration (Daoy cells [1]; U0126 treated cells, 10 ng/ml PDGFA, baseline 275, P<0.05) [cells/mm^2] | Daoy cell migration (Daoy cells [1]; U0126 treated cells, no PDGFA, untreated 275, P<0.05) [cells/mm^2]
PDGFA: PDGFRA ligand, growth factor (Chemicon) used to stimulate Daoy cells | 1.7 | approximately 3 fold | 640 | 819 | 4 | 847 | 1.3 | did not affect the adhesion | 1.6 |  |  |  |  |  |  |  | 
N#CC(=C(/N)Sc1ccccc1N)/C(C#N)=C(\N)Sc1ccccc1N [U0126] |  |  |  |  |  |  |  |  |  | 9 | blocks PDGFA-mediated MAPK1/3 phosphorylation | 50 | 57 | 158 | 65 | 188 | 139
